ChEMBL document CHEMBL1201862, “PubChem BioAssay data set” (2004)
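All cell lines were grown in 96-well plates and treated with compound for 48 hours. GI50 marks 50% less growth.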 Activity calls are given as the source filed them. Cut-off read from the data, not from the text of the source: active = GI50 up to about 1.1 µM and inactive = higher.

Tests used:
Experiment in all cases: NCI-60 cell line screen, 48 h
[1] = test system: UACC-62
[2] = test system: HCT-116
[3] = test system: SF-295
[4] = test system: Malme-3M
[5] = test system: RXF 393
[6] = test system: PC-3
[7] = test system: HCC 2998
[8] = test system: CAKI-1
[9] = test system: MDA-MB-231
[10] = test system: OVCAR-5
[11] = test system: OVCAR-4
[12] = test system: DU-145
[13] = test system: RPMI-8226
[14] = test system: LXFL 529
[15] = test system: M19-MEL
[16] = test system: SF-539
[17] = test system: MOLT-4
[18] = test system: 786-0
[19] = test system: NCI/ADR-RES
[20] = test system: NCI-H522

Measured: GI50

O=C1NC2C(=CC(O)C(O)C2O)c2cc3c(cc21)OCO3 (stereo not given)
active: [1] 421 nM | [2] 150 nM | [3] 582 nM | [4] 488 nM | [5] 154 nM | [6] 141 nM | [7] 415 nM | [8] 280 nM | [9] 48.6 nM | [10] 940 nM | [11] 338 nM | [12] 56 nM | [13] 414 nM | [14] 430 nM | [15] 251 nM | [16] 458 nM | [17] 109 nM | [18] 245 nM | [19] 621 nM | [20] 244 nM
